Results from EP0073960A1, “2-Arylhydrazino-2-imidazolines, their acyl derivatives, process for their preparation and their use in the control of endoparasites and ectoparasites” (BAYER AG, priority 1981, dated 1983).

Test system: Boophilus microplus, Biarra-Stamm
Experiment: In vitro tick test: inhibition of egg laying after dipping adult engorged female ticks
Conditions: Rhipicephalus microplus, 480 h, resistant strain, ticks dipped for 1 minute, read after 20 days, read-out: 50 % Hemmung bei einer Wirkstoff-konzentration in ppm a.i.von
From the text: Lösungsmittel: 35 Gewichtsteile Ethylenglykolmonomethylether 35 Gewichtsteile Nonylphenolpolyglykolether
Zwecks Herstellung einer geeigneten Formulierung vermischt man drei Gewichtsteile Wirkstoff mit sieben Teilen des oben angegebenen Lösungsmittel-Emulgator-Gemisches und verdünnt das so erhaltene Emulsionskonzentrat mit Wasser auf die jeweils gewünschte Konzentration.
In diese Wirkstoffzubereitungen werden adulte, vollgesogene Zeckenweibchen der Art Boophilus microplus (resistent) eine Minute lang getaucht. Nach dem Tauchen von je 10 weiblichen Exemplaren überführt man diese in Petrischalen, deren Boden mit einer entsprechend großen Filterscheibe belegt ist.
Nach 20 Tagen wird die Wirksamkeit der Wirkstoffzubereitung bestimmt durch Ermittlung der Hemmung der Eiablage gegenüber unbehandelten Kontrollzecken. Die Wirkung drückt man in Prozent aus, wobei 100 % bedeutet, daß keine Eier mehr abgelegt wurden und 0 % besagt, daß die Zecken Eier in normaler Menge ablegten.
Untersuchter Wirkstoff, geprüfte Konzentration, getestete Parasiten und erhaltene Befunde gehen aus der folgenden Tabelle 1 hervor.

IC50: > 5000 µg/mL
Structure (SMILES): Cc1cc(Cl)ccc1NC(=S)N(C)C [Chloromethiuron]
